Results taken from patent US20060051354A1, “Chemotherapeutic agents as anti-cancer vaccine adjuvants and therapeutic methods thereof” (priority 2002, published 2006).

Assays:
[1] = i.m., 50 μl, various concentrations, after 7 days
Protocol: Paclitaxel (PTX) (Bristol-Myers Squibb, Princeton, N.J.), Doxorubicin (DOX) (Gensia, Irvine, Calif.), and Cisplatin (CIS) (Bristol-Myers Squibb) are diluted before injection. Cyclophosphamide (CTX) (Bristol-Myers Squibb) is diluted in sterile water before injection. PTX, CTX, Dox and CIS are injected intramuscularly (i.m.). (50 μl containing various concentrations of chemotherapeutic agents). Muscles are harvested and sectioned to perform histological analysis to assess tissue damage.

melanoma = conditions: pretreatment with low dose cyclophosphamide before melanoma vaccine, after 2 months of immunization; cited from earlier work
B16 cells = assay: Melanine levels in B16 cells pretreated with paclitaxel; assay type: cell-based
Protocol: This unexpected observation lead to the immunological rationale for testing immune-modulating doses of chemotherapy in combination with an antigen. As described in Example II, paclitaxel increased the humoral response against ovalbumin. The testing of paclitaxel as improving a whole-cell vaccine in mice was performed as shown in Examples III and V. This principle is illustrated in FIG. 1. Sterilizing cancer cells with chemotherapeutic agents before immunization of the mice with a composition of cancer cells undergoing apoptosis and/or necrosis and chemotherapeutic agents protected the animals against a lethal tumor challenge. This was unexpected since chemotherapeutic agents are known to be toxic and to trigger systemic immunosuppression. Also, to have in one single composition a chemotherapeutic agent(s) and an antigen administered simultaneously simplifies the use of chemotherapeutic agents as potential vaccine adjuvants. The presence of the chemotherapeutic agent in the anti-cancer vaccine composition also renders moot or diminish the need to proceed to the inactivation by irradiation of the tumoral cells forming the anti-cancer vaccine before reinoculation. The drugs, especially paclitaxel, helps to raise an immune response by inducing a variety of genes known to be antigenic. […]

MCP-1 = assay: Paclitaxel induces MCP-1 in muscle tissue (RT-PCR); assay type: in vivo, Mice; conditions: i.m., muscle harvested 6 hours after injection
Protocol: Mice are injected intramuscularly (bilaterally) with varying doses of paclitaxel (100 μM to 0.01 μM). Doses of paclitaxel are prepared by 10-fold serial dilutions, in saline, of a 10 mM DMSO stock. The muscles are harvested, on dry ice, 6 hours following injection, and frozen at −80° C. RNA is isolated using TRIZOL reagent (Gibco) as per manufacturers specifications. Ten micrograms of total RNA is reverse transcribed using Superscript RT (Gibco), 500 ng oligodT primers (Gibco), and 250 ng Random Hexamer primers (Gibco) for 20 minutes at room temperature, followed by 2 hours at 42° C.
MCP-1 is amplified from 2 μl of reverse transcription reaction using Titanium PCR kit (Clontech). Amplification primers are as follows:
The PCR reaction is performed for 30 cycles using 100 pmole for each primer, with an annealing temperature of 68 degrees. The PCR products are analyzed on a 1.5% agarose gel, and have an expected size of 397 bps.

C2C12 cells = assay: Paclitaxel toxicity on differentiated C2C12 cells; assay type: cell-based; conditions: various concentrations, even high concentration, non-dividing cells
Protocol: […] cells were plated in a 12-wells plate at 7×10^4 cells/ml/well in complete DMEM (10 FBS, 1% Strepto-pen, 1% Hepes) and incubated O/N at 37° C. under 5% CO2 atmosphere. Twenty-four hours later, normal DMEM was changed for DMEM containing 2% Horse serum, 1% Strepto-pen and 1% Hepes. The medium was then changed everyday with the complete DMEM 2% Horse serum. For an extra 7 days, complete DMEM 10% Horse serum was added to the cells. After about 1 week, all cells were differentiated and treated with various concentrations of paclitaxel. Even at a high concentration of paclitaxel, differentiated cells now forming elongated muscular fibers, were not affected by any treatment probably due to the non-dividing state of the cells. This observation support the fact that drugs can be injected in the muscle without necessarily causing damages or cell death.

ovalbumin = assay: Humoral response against ovalbumin (ELISA) after intramuscular immunization; assay type: in vivo, Mice; conditions: 1 μg ovalbumin i.m. without adjuvant, 2 weeks
Protocol: The animals are injected intramuscularly into tibialis anterior muscles with 50 μl containing either 1 μg of ovalbumin formulated with or without paclitaxel at 10E^−2 molar. Mice are sacrificed at various time points to perform the ELISA (2 weeks post-immunization). Ovalbumin-specific antibody responses are quantified by enzyme-linked immunosorbent assay (ELISA). Microtiter plates are coated overnight with 1 μg per well of ovalbumin. Plates are then washed once with PBS-Tween 0.01% and blocked for 2 hours at 37° C. with PBS+1% BSA. The plates are then incubated with serial dilutions of mouse sera for 1 hour at 37° C. […] The data are expressed as the percentage of responding mice and as the mean titers of responding mice.

Molecule | infiltration of lymphocytes (histology of injected muscle) [1] | tissue damage (histology of injected muscle) [1] | also measured
O=P1(N(CCCl)CCCl)NCCCO1 (stereo not drawn) [Cyclophosphamide] | mild to moderate | no sign of tissue damage | patients with augmented antibody and/or cellular immune responses to melanoma (melanoma): 83%
COc1cccc2c1C(=O)c1c(O)c3c(c(O)c1C2=O)C[C@@](O)(C(=O)CO)C[C@@H]3O[C@H]1C[C@H](N)[C@H](O)[C@H](C)O1 [Doxorubicin] | mild to moderate | no sign of tissue damage | 
CC(=O)O[C@H]1C(=O)[C@@]2(C)[C@H]([C@H](OC(=O)c3ccccc3)[C@]3(O)C[C@H](OC(=O)[C@H](O)[C@@H](NC(=O)c4ccccc4)c4ccccc4)C(C)=C1C3(C)C)[C@]1(OC(C)=O)CO[C@@H]1C[C@@H]2O [Paclitaxel] | mild to moderate | no sign of tissue damage | Melanine levels in B16 cells (B16 cells): increases; Fold-induction over GAPDH (MCP-1 RT-PCR) (MCP-1; 0.01 μM per injection): 2 fold; Fold-induction over GAPDH (MCP-1 RT-PCR) (MCP-1; 1 μM per injection): 3 fold; Fold-induction over GAPDH (MCP-1 RT-PCR) (MCP-1; 100 μM per injection): 6 fold; effect on differentiated C2C12 cells (toxicity) (C2C12 cells): not affected
N.N.[Cl][Pt][Cl] [Cisplatin] | mild to moderate | no sign of tissue damage | 
Ovalbumin: model protein antigen injected without adjuvant (protein, UniProt P01012 2-386, looked up) Ovalbumin: GSIGAASMEFCFDVFKELKVHHANENIFYCPIAIMSALAMVYLGAKDSTRTQINKVVRFDKLPGFGDSIEAQCGTSVNVHSSLRDILNQITKPNDVYSFSLASRLYAEERYPILPEYLQCVKELYRGGLEPINFQTAADQARELINSWVESQTNGIIRNVLQPSSVDSQTAMVLVNAIVFKGLWEKAFKDEDTQAMPFRVTEQESKPVQMMYQIGLFRVASMASEKMKILELPFASGTMSMLVLLPDEVSGLEQLESIINFEKLTEWTSSNVMEERKIKVYLPRMKMEEKYNLTSVLMAMGITDVFSSSANLSGISSAESLKISQAVHAAHAEINEAGREVVGSAEAGVDAASVSEEFRADHPFLFCIKHIATNAVLFFGRCVSP |  |  | % seroconversion (ovalbumin): 20%
